Test system: 276233-004-R-J1-PDC complex spheroid viability
Experiment: Anticancer human tumor 276233-004-R-J1-PDC patient-derived colon adenocarcinoma cell line growth inhibition [GQUAD]
Conditions: for IC50: curve of first compound; for viability, T/C: stronger effect = lower value
Method in brief: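 Viability of tumor cells grown as complex spheroids with endothelial and stromal cells, exposed to drug combinations. Top concentration at or near clinical Cmax (else 10 microM), diluted in half-log increments.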

[1] = second compound 0.0316 µM, first compound 0.0316 µM
[2] = second compound 0.0316 µM, first compound 0.1 µM
[3] = second compound 0.0316 µM, first compound 0.316 µM
[4] = second compound 0.0316 µM, first compound 1 µM
[5] = second compound 0.0316 µM, first compound 3.16 µM
[6] = second compound 0.0316 µM, first compound 10 µM
[7] = second compound 0.1 µM, first compound 0.0316 µM
[8] = second compound 0.1 µM, first compound 0.1 µM
[9] = second compound 0.1 µM, first compound 0.316 µM
[10] = second compound 0.1 µM, first compound 1 µM
[11] = second compound 0.1 µM, first compound 3.16 µM
[12] = second compound 0.1 µM, first compound 10 µM
[13] = second compound 0.316 µM, first compound 0.0316 µM
[14] = second compound 0.316 µM, first compound 0.1 µM
[15] = second compound 0.316 µM, first compound 0.316 µM
[16] = second compound 0.316 µM, first compound 1 µM
[17] = second compound 0.316 µM, first compound 3.16 µM
[18] = second compound 0.316 µM, first compound 10 µM
[19] = second compound 1 µM, first compound 0.0316 µM
[20] = second compound 1 µM, first compound 0.1 µM
[21] = second compound 1 µM, first compound 0.316 µM
[22] = second compound 1 µM, first compound 1 µM
[23] = second compound 1 µM, first compound 3.16 µM
[24] = second compound 1 µM, first compound 10 µM
[25] = second compound 3.16 µM, first compound 0.0316 µM
[26] = second compound 3.16 µM, first compound 0.1 µM
[27] = second compound 3.16 µM, first compound 0.316 µM
[28] = second compound 3.16 µM, first compound 1 µM
[29] = second compound 3.16 µM, first compound 3.16 µM
[30] = second compound 3.16 µM, first compound 10 µM
[31] = second compound 10 µM, first compound 0.0316 µM
[32] = second compound 10 µM, first compound 0.1 µM
[33] = second compound 10 µM, first compound 0.316 µM
[34] = second compound 10 µM, first compound 1 µM
[35] = second compound 10 µM, first compound 3.16 µM
[36] = second compound 10 µM, first compound 10 µM
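Note: spheroids exposed to drugs for seven days.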
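Throughout, for viability, T/C: 100% = DMSO vehicle control viability.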

COc1cc(C2c3cc4c(cc3C(OC3OC5COC(C)OC5C(O)C3O)C3COC(=O)C23)OCO4)cc(OC)c1O (centres undefined) + Cc1cnc(CNC(=O)c2c(=O)c3ccc(N4CCCN(C)CC4)nc3n3c2sc2ccccc23)cn1
IC50 (second compound 0.0316 µM): > 10 µM | IC50 (second compound 0.1 µM): > 10 µM | IC50 (second compound 0.316 µM): > 10 µM | IC50 (second compound 1 µM): > 10 µM | IC50 (second compound 3.16 µM): > 10 µM | IC50 (second compound 10 µM): > 10 µM | viability, T/C [1]: 83.2% | viability, T/C [2]: 91.7% | viability, T/C [3]: 87.8% | viability, T/C [4]: 72.9% | viability, T/C [5]: 98.6% | viability, T/C [6]: 82.1% | viability, T/C [7]: 97% | viability, T/C [8]: 92.2% | viability, T/C [9]: 76.2% | viability, T/C [10]: 95.3% | viability, T/C [11]: 75.5% | viability, T/C [12]: 88% | viability, T/C [13]: 85.4% | viability, T/C [14]: 77.3% | viability, T/C [15]: 86.9% | viability, T/C [16]: 94.8% | viability, T/C [17]: 73.1% | viability, T/C [18]: 81% | viability, T/C [19]: 84.8% | viability, T/C [20]: 80.2% | viability, T/C [21]: 85.8% | viability, T/C [22]: 83.2% | viability, T/C [23]: 96.4% | viability, T/C [24]: 78.2% | viability, T/C [25]: 78.7% | viability, T/C [26]: 78.2% | viability, T/C [27]: 76.7% | viability, T/C [28]: 76.9% | viability, T/C [29]: 87.7% | viability, T/C [30]: 75.2% | viability, T/C [31]: 65.1% | viability, T/C [32]: 72.2% | viability, T/C [33]: 70.9% | viability, T/C [34]: 71.5% | viability, T/C [35]: 78.7% | viability, T/C [36]: 82.9%

Cc1cccc(N(C)C(=O)C2C(O)CCN2c2nc(C)cc(C(F)(F)F)c2C#N)c1 (centres undefined) + Cc1cnc(CNC(=O)c2c(=O)c3ccc(N4CCCN(C)CC4)nc3n3c2sc2ccccc23)cn1
IC50 (second compound 0.0316 µM): > 10 µM | IC50 (second compound 0.1 µM): > 10 µM | IC50 (second compound 0.316 µM): > 10 µM | IC50 (second compound 1 µM): > 10 µM | IC50 (second compound 3.16 µM): > 10 µM | IC50 (second compound 10 µM): > 10 µM | viability, T/C [1]: 89.8% | viability, T/C [2]: 75.8% | viability, T/C [3]: 90.8% | viability, T/C [4]: 84.7% | viability, T/C [5]: 98.8% | viability, T/C [6]: 92.8% | viability, T/C [7]: 75.4% | viability, T/C [8]: 78.2% | viability, T/C [9]: 80.1% | viability, T/C [10]: 88.6% | viability, T/C [11]: 80.2% | viability, T/C [12]: 82.5% | viability, T/C [13]: 77.2% | viability, T/C [14]: 72.1% | viability, T/C [15]: 81.9% | viability, T/C [16]: 76.4% | viability, T/C [17]: 86.4% | viability, T/C [18]: 84.8% | viability, T/C [19]: 73.5% | viability, T/C [20]: 79.1% | viability, T/C [21]: 85.6% | viability, T/C [22]: 79.5% | viability, T/C [23]: 77.6% | viability, T/C [24]: 87.4% | viability, T/C [25]: 65.7% | viability, T/C [26]: 69.8% | viability, T/C [27]: 70% | viability, T/C [28]: 56.6% | viability, T/C [29]: 79% | viability, T/C [30]: 71% | viability, T/C [31]: 69.9% | viability, T/C [32]: 63.3% | viability, T/C [33]: 73.9% | viability, T/C [34]: 69% | viability, T/C [35]: 66.5% | viability, T/C [36]: 79.3%
